Assay results: US20120165304A1, “6,7,8,9-Tetrahydro-5H-1,4,7,10a-tetraaza-cyclohept[f]indene derivatives, pharmaceutical compositions containing these compounds, their use and processes for preparing them” (BOEHRINGER INGELHEIM INTERNATIONAL GMBH, priority 2008, published 2012)
pEC50: −log10 of the molar value.

What follows are compounds tested against human 5-HT2C receptor (Homo sapiens, UniProt P28335, I156V/I160V/N158S) (assay: cell-based).
human 5-HT2C receptor, sequence (P28335 33-458 I156V/N158S/I160V limits assumed): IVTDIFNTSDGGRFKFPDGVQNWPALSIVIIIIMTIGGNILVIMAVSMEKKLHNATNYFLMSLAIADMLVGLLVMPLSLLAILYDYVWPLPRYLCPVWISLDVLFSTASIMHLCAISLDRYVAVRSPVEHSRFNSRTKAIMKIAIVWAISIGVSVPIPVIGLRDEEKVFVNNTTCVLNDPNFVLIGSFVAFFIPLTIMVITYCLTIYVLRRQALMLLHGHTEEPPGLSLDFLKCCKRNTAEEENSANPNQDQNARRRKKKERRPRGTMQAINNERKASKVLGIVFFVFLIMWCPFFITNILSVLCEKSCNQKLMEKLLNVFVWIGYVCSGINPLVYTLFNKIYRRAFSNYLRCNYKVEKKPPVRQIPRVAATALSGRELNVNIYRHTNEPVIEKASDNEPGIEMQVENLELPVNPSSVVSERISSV

Structure (SMILES)	pEC50
O=C(C1CN(c2c3c(nc4ccnn24)CCNCC3)C1)N1CCc2ccc(C(F)(F)F)cc21 [Example 31.157]	7.47
CN1CCc2nc3ccnn3c(N3CC(C(=O)N4CCN(C(=O)C5CCCC5)CC4)C3)c2CC1 [Example 36.58]	6.35
CN(Cc1nccs1)C(=O)C1CN(c2c3c(nc4ccnn24)CCNCC3)C1 [Example 31.13]	7.00
C#CC(C)NC(=O)C1CN(c2c3c(nc4ccnn24)CCNCC3)C1 (stereo not shown) [Example 37.109]	7.10
FC(F)(F)Oc1ccc(OC2CN(c3c4c(nc5ccnn35)CCNCC4)C2)cc1 [Example 35.32]	6.39
CC(C)N1CCCN(C(=O)C2CN(c3c4c(nc5ccnn35)CCN(C)CC4)C2)CC1 [Example 36.49]	7.11
c1cc2nc3c(c(N4CC(OCC5CC5)C4)n2n1)CCNCC3 [Example 20.3]	6.33
CN1CCc2nc3ccnn3c(N3CC(C(=O)NC4CCC(C)(C)CC4)C3)c2CC1 [Example 36.39]	6.04
CC1CC(C)CC(N(C)C(=O)C2CN(c3c4c(nc5ccnn35)CCNCC4)C2)C1 (stereo not shown) [Example 31.216]	6.07
CN(CCc1ccccc1)C(=O)C1CN(c2c3c(nc4ccnn24)CCNCC3)C1 [Example 31.61]	6.75
C[C@H](NC(=O)C1CN(c2c3c(nc4ccnn24)CCNCC3)C1)C1CCCCC1 [Example 31.189]	6.50
Cc1cnn2c(N3CC(C(=O)N4CCC5(CC4)OCc4ccccc45)C3)c3c(nc12)CCNCC3 [Example 31.242]	7.07
O=C(C1CN(c2c3c(nc4ccnn24)CCNCC3)C1)N1CCC(Oc2ccccn2)CC1 [Example 31.230]	7.27
O=C(C1CN(c2c3c(nc4ccnn24)CCNCC3)C1)N1CCc2ccccc2C1 [Example 31.60]	7.24
CC1CCCN1C(=O)C1CN(c2c3c(nc4ccnn24)CCNCC3)C1 (stereo not shown) [Example 31.73]	6.60
CN1CCc2nc3ccnn3c(N3CC(C(=O)N4CCN(C)C(=O)C4)C3)c2CC1 [Example 36.19]	6.59
FC(F)(F)c1cccc(OC2CN(c3c4c(nc5ccnn35)CCNCC4)C2)c1 [Example 1.7]	7.38
COC1(C)CCN(C(=O)C2CN(c3c4c(nc5ccnn35)CCNCC4)C2)CC1 [Example 31.220]	7.26
CC1CCN(C(=O)C2CN(c3c4c(nc5ccnn35)CCNCC4)C2)C1 (stereo not shown) [Example 31.124]	7.03
CC(C)CN(Cc1ccc(F)cc1)C(=O)C1CN(c2c3c(nc4ccnn24)CCNCC3)C1 [Example 31.198]	5.74
c1ccc(C2CCN2c2c3c(nc4ccnn24)CCNCC3)cc1 (stereo not shown) [Example 21, 10-(2-Phenyl-azetidin-1-yl)-6,7,8,9-tetrahydro-5H-1,4,7,10a-tetraaza-cyclohepta[f]indene]	5.28
CN1CCc2nc3ccnn3c(N3CC(C(=O)N4CCC(N5CCCC5)CC4)C3)c2CC1 [Example 36.8]	7.42
c1ccc(C(OC2CCCN(c3c4c(nc5ccnn35)CCNCC4)C2)c2ccccc2)cc1 (stereo not shown) [Example 1.37]	5.89
CN1CCc2nc3ccnn3c(N3CC(C(=O)N4CC(N(C)C)C4)C3)c2CC1 [Example 36.48]	6.57
CN1CCc2nc3ccnn3c(N3CC(C(=O)N4CCNC(=O)C4)C3)c2CC1 [Example 36.14]	6.44
FC(F)(F)c1ccnc(OC2CN(c3c4c(nc5ccnn35)CCNCC4)C2)n1 [Example 35.48]	6.28
CC(C)CN1CCN(C(=O)C2CN(c3c4c(nc5ccnn35)CCNCC4)C2)CC1 [Example 37.15]	8.52

Structure (SMILES)	pEC50
O=C(NC1CCCC1)C1CN(c2c3c(nc4ccnn24)CCNCC3)C1 [Example 31.18]	6.34
O=C(NCc1ccccc1)C1CCN(c2c3c(nc4ccnn24)CCNCC3)CC1 [Example 1.24]	5.88
CN(Cc1ccc(Cl)cc1Cl)C(=O)C1CN(c2c3c(nc4ccnn24)CCNCC3)C1 [Example 31.164]	6.95
CN(C)C(=O)C1CN(c2c3c(nc4ccnn24)CCNCC3)C1 [Example 9, 1-(6,7,8,9-Tetrahydro-5H-1,4,7,10a-tetraaza-cyclohepta[f]inden-10-yl)-azetidine-3-carboxylic acid dimethylamide]	7.15
CC1CN(C(=O)C2CN(c3c4c(nc5c(Br)cnn35)CCNCC4)C2)CC(C)O1 (stereo not shown) [Example 31.140]	7.19
c1ccc(C2CCN(c3c4c(nc5ccnn35)CCNCC4)C2)cc1 (stereo not shown) [Example 1.26]	6.80
COC[C@@H]1CCN1c1c2c(nc3ccnn13)CCNCC2 [Example 8, (S)-10-(2-Methoxymethyl-azetidin-1-yl)-6,7,8,9-tetrahydro-5H-1,4,7,10a-tetraaza-cyclohepta[f]indene]	6.57
Fc1ccc(OC2CN(c3c4c(nc5ccnn35)CCNCC4)C2)cc1 [Example 1.6]	7.64
O=C(C1CN(c2c3c(nc4ccnn24)CCNCC3)C1)N1CCC(c2ccc(Br)cc2)CC1 [Example 31.112]	6.88
CN1CCc2nc3ccnn3c(N3CC(C(=O)N4CCN(C5CCCC5)CC4)C3)c2CC1 [Example 36.13]	6.94
CC(C)(C)N1CCC2(CCN(C(=O)C3CN(c4c5c(nc6ccnn46)CCNCC5)C3)CC2)C1=O [Example 31.150]	6.62
O=C(C1CN(c2c3c(nc4ccnn24)CCNCC3)C1)N1CC(F)(F)C(F)(F)C1 [Example 31.200]	7.55
CC1CC(c2ccccc2)CN1C(=O)C1CN(c2c3c(nc4ccnn24)CCNCC3)C1 (stereo not shown) [Example 31.128]	7.27
CC1(C(=O)N2CCC(c3ccccc3F)CC2)CN(c2c3c(nc4ccnn24)CCNCC3)C1 [Example 32.6]	5.56
COc1cc(Br)ccc1OC1CN(c2c3c(nc4ccnn24)CCNCC3)C1 [Example 35.17]	7.06
CC1CCCN(C(=O)C2CN(c3c4c(nc5ccnn35)CCNCC4)C2)C1 (stereo not shown) [Example 31.1]	7.05
CC(=O)N(C)C1CCN(C(=O)C2CN(c3c4c(nc5ccnn35)CCN(C)CC4)C2)CC1 [Example 36.31]	6.73
O=C(C1CCCN(c2c3c(nc4ccnn24)CCNCC3)C1)N1CCCCC1 (stereo not shown) [Example 1.61]	5.33
CC1C=CC(C)N1C(=O)C1CN(c2c3c(nc4ccnn24)CCNCC3)C1 (stereo not shown) [Example 31.192]	6.44
O=C(C1CN(c2c3c(nc4ccnn24)CCNCC3)C1)N1CCC(c2cccc(Cl)c2)CC1 [Example 31.111]	7.25
c1ccc2[nH]c(C3CN(c4c5c(nc6ccnn46)CCNCC5)C3)nc2c1 [Example 34]	6.21
COc1ccc2c(c1)CCN2C(=O)CC1CN(c2c3c(nc4ccnn24)CCNCC3)C1 [Example 33.3]	7.92
Cc1cccc2c1CCN2C(=O)C1CN(c2c3c(nc4ccnn24)CCNCC3)C1 [Example 31.175]	7.19
CN(C)[C@H]1CC[C@H](NC(=O)C2CN(c3c4c(nc5ccnn35)CCNCC4)C2)CC1 [Example 37.98]	7.60
O=C(C1CN(c2c3c(nc4ccnn24)CCNCC3)C1)N1CCCC2(CCCc3ccccc32)C1 (stereo not shown) [Example 31.172]	6.12
c1ccc(CC2CN(c3c4c(nc5ccnn35)CCNCC4)C2)nc1 [Example 18, 10-(3-Pyridin-2-ylmethyl-azetidin-1-yl)-6,7,8,9-tetrahydro-5H-1,4,7,10a-tetraaza-cyclohepta[f]indene]	6.35
c1ccc2c(c1)ncn2C1CCN(c2c3c(nc4ccnn24)CCNCC3)CC1 [Example 1.42]	5.02

Structure (SMILES)	pEC50
CN1CCN(C(=O)C2CN(c3c4c(nc5ccnn35)CCNCC4)C2)CC1=O [Example 37.100]	7.85
CNC(=O)C1CN(c2c3c(nc4ccnn24)CCNCC3)C1 [Example 9.1]	6.09
CC(C)CNC(=O)C1CN(c2c3c(nc4ccnn24)CCNCC3)C1 [Example 37.78]	7.09
CN1CCc2nc3ccnn3c(N3CC(C(=O)N4CCN(CC5CC5)CC4)C3)c2CC1 [Example 36.18]	7.11
C#CC1(NC(=O)C2CN(c3c4c(nc5ccnn35)CCNCC4)C2)CCCCC1 [Example 37.79]	7.21
COc1cc(F)ccc1OCC1CN(c2c3c(nc4ccnn24)CCNCC3)C1 [Example 15.8]	8.22
CN(Cc1cccc(Br)c1)C(=O)C1CN(c2c3c(nc4ccnn24)CCNCC3)C1 [Example 31.79]	7.70
CCNC(=O)C1CN(c2c3c(nc4ccnn24)CCNCC3)C1 [Example 37.95]	6.13
CCc1cnn2c(N3CCC3)c3c(nc12)CCNCC3 [Example 25.2]	7.92
CC(C)(C)N1CCC2(CCN(c3c4c(nc5ccnn35)CCNCC4)CC2)C1=O [Example 1.65]	5.31
CCCN(C)C(=O)C1CN(c2c3c(nc4ccnn24)CCNCC3)C1 [Example 31.66]	6.44
CC1(C)CCCN(C(=O)C2CN(c3c4c(nc5ccnn35)CCNCC4)C2)C1 [Example 31.30]	6.47
CCCCN1CCN(C(=O)C2CN(c3c4c(nc5ccnn35)CCNCC4)C2)CC1 [Example 37.25]	8.52
CC(C)CCN(C)C(=O)C1CN(c2c3c(nc4ccnn24)CCNCC3)C1 [Example 31.74]	6.76
C[C@@H](c1ccccc1)N(C)C(=O)C1CN(c2c3c(nc4ccnn24)CCNCC3)C1 [Example 31.91]	5.70
CO[C@H]1CCN(C(=O)C2CN(c3c4c(nc5ccnn35)CCN(C)CC4)C2)C1 [Example 36.41]	6.47
O=C(C1CN(c2c3c(nc4ccnn24)CCNCC3)C1)N1CCN(Cc2ccc(F)cc2)CC1 [Example 37.23]	8.22
c1ccc(CN2CCN(c3c4c(nc5ccnn35)CCNCC4)CC2)cc1 [Example 1.1]	6.97
CN1CCc2nc3ccnn3c(N3CC(C(=O)N4CCN(C5CC5)CC4)C3)c2CC1 [Example 36.24]	6.64
O=C(C1CN(c2c3c(nc4ccnn24)CCNCC3)C1)N1C2CCCCC1CCC2 [Example 31.158]	5.91
NC1CCN(C(=O)C2CN(c3c4c(nc5ccnn35)CCNCC4)C2)C1 (stereo not shown) [Example 37.16]	8.30
CC1CN(C(=O)C2CN(c3c4c(nc5ccnn35)CCN(C)CC4)C2)CC(C)N1C (stereo not shown) [Example 36.7]	6.97
CCN1CCCN(C(=O)C2CN(c3c4c(nc5ccnn35)CCN(C)CC4)C2)CC1 [Example 36.50]	7.09
O=C(C1CN(c2c3c(nc4ccnn24)CCNCC3)C1)N1CC(Cc2ccccc2)C1 [Example 31.119]	7.09
CNC1CCN(C(=O)C2CN(c3c4c(nc5ccnn35)CCNCC4)C2)C1 (stereo not shown) [Example 37.26]	8.70
